Reference: ChEMBL document CHEMBL1201862, “PubChem BioAssay data set” (2004)
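The compound was tested at five concentrations on cells cultured in 96-well plates, with a 48-hour exposure period. GI50: concentration for 50% inhibition of growth.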 Activity calls are given as the source filed them. No stated cut-off is given here; in the data, active = GI50 up to about 1.1 µM and inactive = higher.

Columns and labels:
Assay in all cases: growth of human tumour cells (NCI), 48 h
SR = system: SR
COLO 205 = system: COLO 205
SNB-75 = system: SNB-75
Malme-3M = system: Malme-3M
SF-268 = system: SF-268
OVCAR-4 = system: OVCAR-4
RXF 393 = system: RXF 393
KM12 = system: KM12
HL-60 = system: HL-60
SK-OV-3 = system: SK-OV-3
SN12C = system: SN12C
HOP-92 = system: HOP-92
SF-295 = system: SF-295
SK-MEL-5 = system: SK-MEL-5
U-251 = system: U-251
A549 = system: A549
NCI-H522 = system: NCI-H522

Measured: GI50

COc1ccc(S(=O)(=O)c2ccccc2[N+](=O)[O-])cc1
inactive: SR > 100 µM | COLO 205 > 100 µM | SNB-75 21.9 µM | Malme-3M 81.1 µM | SF-268 > 100 µM | OVCAR-4 > 100 µM | RXF 393 55.6 µM | KM12 > 100 µM | HL-60 55.6 µM | SK-OV-3 > 100 µM | SN12C 86.1 µM | HOP-92 > 100 µM | SF-295 62.8 µM | SK-MEL-5 65 µM | U-251 82.6 µM | A549 > 100 µM

Cc1ccc(Oc2ccc(C)cc2[N+](=O)[O-])cc1
inactive: SR 33.7 µM | COLO 205 > 100 µM | SNB-75 22.9 µM | Malme-3M > 100 µM | SF-268 > 100 µM | OVCAR-4 6.12 µM | RXF 393 26.5 µM | KM12 > 100 µM | HL-60 26.4 µM | SK-OV-3 > 100 µM | SN12C > 100 µM | HOP-92 28.6 µM | SF-295 > 100 µM | SK-MEL-5 29.8 µM | U-251 25.8 µM | A549 92.9 µM

Cc1ccc(/C=C/C(=O)c2ccc([N+](=O)[O-])cc2)cc1
inactive: SR 79.1 µM | COLO 205 > 100 µM | SNB-75 > 100 µM | Malme-3M > 100 µM | SF-268 > 100 µM | NCI-H522 56.4 µM | OVCAR-4 > 100 µM | RXF 393 > 100 µM | KM12 > 100 µM | HL-60 90.6 µM | SK-OV-3 > 100 µM | SN12C > 100 µM | SF-295 > 100 µM | SK-MEL-5 > 100 µM | U-251 21.2 µM | A549 > 100 µM

[O-]c1on[n+]2c1c(Nc1ccc(Cl)cc1)nc1ccccc12
inactive: SR > 100 µM | COLO 205 > 100 µM | SNB-75 85.1 µM | SF-268 > 100 µM | NCI-H522 > 100 µM | OVCAR-4 > 100 µM | RXF 393 > 100 µM | KM12 > 100 µM | HL-60 > 100 µM | SK-OV-3 > 100 µM | SN12C > 100 µM | HOP-92 > 100 µM | SF-295 > 100 µM | SK-MEL-5 > 100 µM | U-251 > 100 µM | A549 > 100 µM

COC(=O)C1CC2(c3ccccc3)C(=O)c3ccccc3N2O1 (stereo not given)
inactive: SR 18.9 µM | COLO 205 98.4 µM | SNB-75 40.5 µM | Malme-3M > 100 µM | SF-268 > 100 µM | NCI-H522 15.5 µM | OVCAR-4 > 100 µM | KM12 72.4 µM | HL-60 28.9 µM | SK-OV-3 > 100 µM | SN12C 43 µM | HOP-92 49.5 µM | SF-295 > 100 µM | SK-MEL-5 74.8 µM | U-251 69.2 µM | A549 > 100 µM

COc1ccc(C(=O)C(C(=O)C(=O)NCCCNC(=O)C(=O)C(C(=O)c2ccc(OC)cc2)c2ccc(OC)cc2)c2ccc(OC)cc2)cc1 (stereo not given)
inactive: SR > 100 µM | COLO 205 > 100 µM | SNB-75 > 100 µM | Malme-3M > 100 µM | SF-268 > 100 µM | NCI-H522 > 100 µM | OVCAR-4 > 100 µM | KM12 > 100 µM | HL-60 > 100 µM | SK-OV-3 > 100 µM | HOP-92 > 100 µM | SF-295 > 100 µM | U-251 > 100 µM | A549 > 100 µM

Cc1ccc(NC(=O)/C(CC(=O)c2c[n+]([O-])c3ccccc3[n+]2[O-])=N\NC(=O)C[n+]2ccccc2)cc1
inactive: SR > 100 µM | COLO 205 > 100 µM | SNB-75 > 100 µM | Malme-3M > 100 µM | SF-268 > 100 µM | NCI-H522 > 100 µM | OVCAR-4 64.1 µM | RXF 393 > 100 µM | KM12 > 100 µM | HL-60 35 µM | SK-OV-3 > 100 µM | SN12C > 100 µM | SF-295 > 100 µM | SK-MEL-5 > 100 µM | U-251 > 100 µM | A549 > 100 µM
